Measurements reported in patent publication US20120202272A1, “LIGE-TYPE SYSTEMS FOR BIOCONVERSION OF LIGNIN-DERIVED COMPOUNDS” (priority 2010, published 2012).

B1: ligE: S. paucimobilis ligE beta-etherase, positive control polypeptide (protein)
chain: MARNNTITLYDLQLESGCTISPYVWRTKYALKHKGFDIDIVPGGFTGILERTGGRSERVPVIVDDGEWVLDSWVIAEYLDEKYPDRPMLFEGPTQKNLMKFLDNWLWSTAVGPWFRCYILDYHDLSLPQDRDYVRWSREQWFLGGQRLEDVQAGREDRLPLVPPTLEPFRRILAETKWLGGDQPNFADYSALAVFLWTASVARTPPLTEDDPLRDWLDRGFDLFDGLGRHPGMNPLFGLKLREGDPEPFVRQTGPAGAGGQALNKGPQTTKMPPRVAEKAD
B2: LigF2: N. aromaticivorans beta-etherase polypeptide, glutathione S-transferase-like protein, GenBank ABD27301.1 (protein)
chain: MALKYYHAEPLANSLKSMVPLKEKGLAYESIYVDLHKFEQHQPWFTAINPEGQVPVLDHDGTIITHTTVINEYLEDAFPDAQPADAPLRPRDPVGAARMRYWNKFIDEHVMNYVSMHGWHRMVGVIARNIASGDFEKLLESIPLPDQRKKWATARSGFSEADLANATAKIEYALDKVEKQLGETKWLAGDTYTLADINFYSHCGAMVERMFPEMEVARRAPRLCEWRDRVAARPAVAEALKSEDRTAPGLRVWSGEVR
B3: ligE1: N. aromaticivorans beta-etherase polypeptide, glutathione S-transferase-like protein, GenBank ABD26841.1 (protein)
chain: MAANNTITFYDLALSTGATISPFVWATKYALKHKGFDLDVVPGGFTGILERTGGKTERLPAIVDDGEFVLDSWGIVEYLDAKYPDRPVLIPHESVAATLKALDNWFWNAAVGPWMFCFCQDYRDLSLPQDHEYVTHSREKMLGRKLEEVQAGREERLPKISAALEPLRAALAQHQWLGGSSPNYADYRIMGGILFTASVCKTPVLANDDPLRDWIERCLDLYGGLGRHPGLFPLFGLEQREGDPDLFNRAAGQGGIYKRNTGPESTRAETQRITEGMKK
B4: LigF: S. paucimobilis LigF beta-etherase, positive control polypeptide (protein)
chain: MTLKLYSFGPGANSLKPLATLYEKGLEFEQVFVDPSKFEQHSDWFKKINPRGQVPALWHDGKVVTESTVICEYLEDVFPESGNSLRPADPFKRAEMRVWTKWVDEYFCWCVSTIGWAFGIKAIAQKMSDEEFEEHINKNVPIPEQQLKWRRARNGFPQEMLDEEFRKVGVSVARLEETLSKQDYLVDTGYSLADICNFAIANGLQRPGGFFGDYVNQEKTPGLCAWLDRINARPAIKEMFEKSKREDLLKRQNEKVA

What was measured:
Escherichia coli = conditions: stated as demonstrated; cited from earlier work
[1] = in vitro biochemical assay for beta-etherase activity on fluorescent substrate MUAV (4MU formation, clarified E. coli cell extracts)
From the text: The model substrate synthesis 150 for use in the biochemical screening for selective activity can be outsourced through a contract research organization (CRO). The enzyme discovery effort can initially be focused on identifying potential beta-etherase candidate genes identified through bioinformatic methods. […] The fluorescent substrate α-O-(β-methylumbelliferyl)acetovanillone (MUAV), for example, can be used in in vitro assays to identify beta-etherase function (Acme Biosciences, Mt. View, Calif.). The formation of 4 methylumbelliferone (4MU) upon hydrolysis of the aryl ether bond can be monitored by fluorescence, for example, at λex=365 nm and λem=450 nm (or 460 nm).
The enzyme screening 155 is done to identify novel etherases 160. […] Expression of the beta-etherase genes can be done in 5 ml or 25 ml samples of the recombinant E. coli strains in LB medium using induction with IPTG. Following induction, and cell harvest, cell pellets can be lysed using the BPER (Invitrogen) cell lysis system. […] The formation of 4 methylumbelliferone (4MU) upon hydrolysis of the aryl ether bond in MUAV can be monitored by fluorescence at λex=365 nm and λem=460 nm, and can provide quantitative measurement of beta-etherase function. Cell extracts of E. coli transformed with the S. paucimobilis ligE and ligF genes can be the assay positive controls. Test or unknown samples can include, for example, E. coli strains expressing putative beta-etherase genes from N. aromaticovorans.
This example describes a method for gene expression in E. coli, as well as beta-etherase biochemical assays. Expression of known and putative beta-etherase genes was performed using 5 ml cultures of the recombinant E. coli strains described herein in Luria Broth medium by induction of gene expression using isopropylthiogalactoside (IPTG) to a final concentration of 0.1 mM. Following induction, and cell harvest, the cells were disrupted using either sonication or the BPER (Invitrogen) cell lysis system.
In vitro reactions were performed in a total volume of 200 ul and contained: 25 mM TrisHCl pH 7.5; 0.5 mM dithiothreitol; 1 mM glutathione; 0.05 mM or 0.1 mM MUAV; 10 ul of clarified cell extract used to initiate the reactions. Following incubation for 2.5 hours at room temperature, a 50 ul sample of the reactions was terminated using 150 uL of 300 mM glycine/NaOH buffer pH 9. The formation of 4 methylumbelliferone (4MU) upon hydrolysis of the aryl ether bond was monitored by the increase in fluorescence at λex=360 nm and λem=450 nm using a Spectramax UV/visible/fluorescent spectrophotometer.
The total protein concentrations of the cell lysates were determined using the BCA reagent system for protein quantification (Pierce).
Induction might be also performed using IPTG concentrations in the range of 0.01-1 mM. Cell disruption might be also performed using toluene permeabilization, French pressure techniques, or using multiple freeze/thaw cycles in conjunction with lysozyme. Assay conditions might be varied to include TrisHCl at 10-150 mM concentrations and in the pH range of 6.5-8.5; 0-2 mM dithiothreitol; 0.05-2 mM glutathione; 0.01-5 mM MUAV substrate; 22-42° C. reaction temperatures. The biochemical assay might be performed as a fixed time point assay with reaction times ranging from 5 minutes-12 hours, or performed continuously without quenching with glycine/NaOH buffer to extract enzyme kinetic parameters.

[2] = reactions containing 0.1 mM MUAV substrate, E. coli cell extracts
[3] = MUAV substrate, concentration not given

Row | Molecule | antibacterial activity against Escherichia coli (Escherichia coli) | other results
1 | O=Cc1ccc(O)c(O)c1O [2,3,4-trihydroxybenzaldehyde] | antibacterial activity | 
2 | O=Cc1cccc(O)c1O [2,3-dihydroxybenzaldehyde] | antibacterial activity | 
3 | O=Cc1c(O)cc(O)cc1O [2,4,6-trihydroxybenzaldehyde] | antibacterial activity | 
4 | O=Cc1ccc(O)cc1O [2,4-dihydroxybenzaldehyde] | antibacterial activity | 
5 | O=Cc1cc(O)ccc1O [2,5-dihydroxybenzaldehyde] | antibacterial activity | 
6 | COc1cccc(C=O)c1O [2-hydroxy-3-methoxybenzaldehyde] | antibacterial activity | 
7 | COc1ccc(O)c(C=O)c1 [2-hydroxy-5-methoxybenzaldehyde] | antibacterial activity | 
8 | O=Cc1ccccc1O [2-hydroxybenzaldehyde] | antibacterial activity | 
9 | COc1cc(O)cc(OC)c1C=O [4-hydroxy-2,6-dimethoxybenzaldehyde] | antibacterial activity | 
10 | B1 |  | total activity (beta-etherase) [1, 2]: 7 rfu/ug
11 | B2 |  | efficiency relative to S. paucimobilis LigF protein ([1]; MUAV substrate): approximately 2 fold; total activity (beta-etherase) [1, 3]: 1206 rfu/ug
12 | B3 |  | beta-etherase activity (in words) ([1]; MUAV substrate): beta-etherase activity; efficiency relative to S. paucimobilis ligE beta-etherase enzyme ([1]; MUAV substrate): approximately 75 fold; total activity (beta-etherase) [1, 2]: 529 rfu/ug
13 | B4 |  | total activity (beta-etherase) [1, 3]: 558 rfu/ug
